These results are taken from patent US20230277508A1, “USE OF COMPOUND AS CYP2E1 INHIBITOR” (SHANGHAI LING XI BIOTECHNOLOGY DEVELOPMENT CO., LTD., priority 2020, published 2023).

The target of data set [1] is T1, human liver microsome CYP2E1 (Homo sapiens, UniProt P05181).
T1 construct: metabolic activity of a mixed liver microsome CYP2E1 of a healthy individual; from tissue; host or cells: mixed (pooled) human liver microsomes of healthy individuals
The data set can be described thus: Determination of IC50 for a CYP2E1 inhibitory effect (CZX probe, mixed liver microsome). The class given is biochemical. To be noted: mixed liver microsome of healthy individuals 0.3 mg/mL, 62.5 μM CZX, 1 mM NADPH, 30 min; read-out: IC50 for 2E1 inhibition. The protocol:
CZX was used as a probe substrate to detect an inhibitory effect of an inhibitor to be tested on the metabolic activity of a mixed liver microsome CYP2E1 of a healthy individual (IC50: half inhibition concentration; Ki: inhibition constant; the smaller the IC50 and the smaller the Ki, the higher the inhibition intensity of the inhibitor), thereby determining an inhibitory effect of the inhibitor to be tested on the human liver microsome CYP2E1.
An incubation system in a total volume of 100 μL was adopted, including a substrate, an inhibitor of different concentrations, a liver microsomal protein, and phosphate-buffered saline (PBS). The incubation system was pre-incubated in a 37° C. water bath for 5 min, reduced coenzyme was added to allow a reaction for 30 min, and then the reaction was terminated in an ice bath. In a specific experiment, a concentration of an inhibitor can be selected as required.
In this example, the incubation system includes 62.5 μM CZX, 100 mM (pH=7.4) PBS, 0.3 mg/mL liver microsomal protein, and 1 mM NADPH.
In this example, the reaction is terminated with 1 mL of ethyl acetate. In other preferred examples, the reaction may also be terminated with 1 mL of methyl tert-butyl ether (MTBE), 1 mL of diethyl ether, or 100 μL of methanol.
A general note: Liver microsomes are a subcellular fraction often used to study metabolism.

In data set [2] the test system is liver fibrosis in mice induced by a high-fat diet. The data set can be described thus: Mouse liver fibrosis model induced by a high-fat diet. Type of data set: in vivo, C57/6J mice. The following applies: SMI0 30 and 150 mg/kg ig daily, 26 weeks, vs model group. The protocol:
Experimental method: Male C57/6J mice were fed with a high-fructose, high-fat, and high-cholesterol feed to prepare mouse liver steatosis and hepatitis models, and a control group was fed with a low-fat and low-sugar control feed. An SMI0 intervention group was divided into a low-dose intervention group and a high-dose intervention group, which were intragastrically administered with the compound SMI0 at 30 mg/kg and 150 mg/kg every day from the beginning of modeling to the 26nd week of modeling. At the end of the 26-week experiment, blood was collected from the orbit, a body weight was measured, and then the mice each were sacrificed. The weight and appearance of a liver (color, texture, and presence or absence of nodules of the liver) were recorded. Some liver specimens were subjected to HE staining and then observed, and a steatosis score of mice in each group was recorded; and Masson staining was conducted to evaluate a liver fibrosis status of mice, and an oil red O staining area percentage was determined (model group, n=10 mice; SMI0 compound low-dose group, n=10 […]; and SMI0 compound high-dose group, n=10 […]).

Data set [3] concerns hyperlipidemia and aortic atherosclerotic plaques in ApoE-/- mice. The data set can be described thus: ApoE-/- mouse hyperlipidemia model induced by a high-fat diet. The class given is in vivo. To be noted: for High-density lipoprotein / Low-density lipoprotein / Total cholesterol / Triglyceride: serum, 16 weeks, n=8. The protocol: Experimental method: ApoE^−/− mice were fed with a high-fat and high-cholesterol feed to construct an ApoE^−/− mouse hyperlipidemia model. An SMI0 intervention group was divided into a low-dose intervention group and a high-dose intervention group, which were administered with the compound SMI0 at 30 mg/kg and 150 mg/kg every day from the beginning of modeling to the end of the 16-week modeling. At the end of the experiment, blood was collected from the orbit, and the levels of blood lipid-associated indexes in the serum of each mouse were determined by an automatic biochemical analyzer (8 mice in each group).

Data set [4] concerns CT26 cell lung metastasis. The data set can be described thus: Lung metastasis model, tail vein injection of CRC cell CT26. Type of data set: in vivo, Balb/C mouse. To be noted: SMI0 30 mg/kg, 14 days.
For data set [5], the target named is T2, CYP2E1 (Mus musculus, UniProt Q05421).
T2 construct: from tissue; host or cells: liver microsomes of treated model mice (calcium precipitation)
T2 sequence (Q05421 whole entry): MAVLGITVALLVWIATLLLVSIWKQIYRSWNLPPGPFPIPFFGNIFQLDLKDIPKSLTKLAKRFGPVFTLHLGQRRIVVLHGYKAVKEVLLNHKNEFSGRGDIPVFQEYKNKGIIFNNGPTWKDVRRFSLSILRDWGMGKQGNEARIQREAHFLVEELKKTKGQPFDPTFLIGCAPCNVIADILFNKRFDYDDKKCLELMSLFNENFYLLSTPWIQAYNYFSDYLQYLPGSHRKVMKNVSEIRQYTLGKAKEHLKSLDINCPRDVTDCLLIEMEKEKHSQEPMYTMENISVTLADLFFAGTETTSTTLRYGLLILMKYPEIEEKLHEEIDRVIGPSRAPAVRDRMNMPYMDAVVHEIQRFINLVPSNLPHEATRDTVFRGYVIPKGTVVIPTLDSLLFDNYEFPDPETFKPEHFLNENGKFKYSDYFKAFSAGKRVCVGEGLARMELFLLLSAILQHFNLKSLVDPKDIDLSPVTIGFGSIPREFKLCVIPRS
The data set can be described thus: CYP2E1 activity (CZX metabolism by liver microsome) in LPS-induced mouse pulmonary fibrosis model. Type of data set: in vivo. The following applies: liver microsome of SMI0 high-dose group vs model group, P<0.05. As to the method:
Experimental method: A calcium precipitation method was used to prepare a mouse liver microsome, and a Braford method was used to determine a protein concentration in the microsome. An incubation system was prepared with 2×PBS, a CZX solution, and the liver microsome at a final concentration of 0.5 mg/mL, and then pre-incubated at 37° C. for 5 min; NADPH was added to initiate a reaction, and a resulting mixture was incubated at 37° C. for 30 min and then placed on ice to terminate the reaction; and ethyl acetate was added to extract 6-hydroxychlorzoxazone, a resulting mixture was vortexed and centrifuged, and a resulting upper organic phase was collected and blow-dried with nitrogen. A peak area of a CZX metabolite 6-hydroxychlorzoxazone was detected by HPLC under the following conditions: methanol:water=56:44, and detection wavelength: 287 nm. A concentration A C of the metabolite 6-hydroxychlorzoxazone was calculated through substitution into a standard curve; and a reaction rate of conversion of CZX into 6-hydroxychlorzoxazone was calculated according to V(pmol/min/mg)=(ΔC*1000)/(B*T) to evaluate an enzymatic activity of CYP2E1, where B represents a protein concentration of the microsome (mg/mL) and T represents an incubation time (min). A correlation between a CYP2E1 activity and a pulmonary fibrosis severity in mice was analyzed.

Marks after values point to notes of the source that are not given here.

T1 sequence (P05181 whole entry): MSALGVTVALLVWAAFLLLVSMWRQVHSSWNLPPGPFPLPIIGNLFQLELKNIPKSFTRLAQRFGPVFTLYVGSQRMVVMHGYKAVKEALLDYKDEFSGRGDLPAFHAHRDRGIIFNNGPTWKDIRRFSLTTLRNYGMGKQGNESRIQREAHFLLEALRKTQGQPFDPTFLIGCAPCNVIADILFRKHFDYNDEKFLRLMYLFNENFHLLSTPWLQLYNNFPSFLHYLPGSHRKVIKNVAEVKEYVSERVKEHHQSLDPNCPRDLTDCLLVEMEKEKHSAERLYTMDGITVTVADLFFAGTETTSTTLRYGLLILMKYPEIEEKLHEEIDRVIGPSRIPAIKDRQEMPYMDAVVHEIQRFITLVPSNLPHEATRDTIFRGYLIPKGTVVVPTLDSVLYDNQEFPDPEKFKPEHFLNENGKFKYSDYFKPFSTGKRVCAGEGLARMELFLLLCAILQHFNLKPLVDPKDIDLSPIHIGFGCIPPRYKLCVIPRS

For orientation: IC50 means the concentration at which inhibition is half-maximal. In the case of `CC(=O)c1scnc1C` [SMI0], the IC50 in data set [1] stood at 1640 nM. Moreover, the “liver fibrosis level in mice induced by a high-fat diet” value in data set [2] is “significantly reduce”. For the same compound, the “total area of aortic root lesions (HE staining)” value in data set [3] (SMI0 high-dose group 150 mg/kg vs model group, P<0.01) is given as “significantly reduced”. Moreover, the “total area of aortic root lesions (oil red O staining)” value in data set [3] (SMI0 high-dose group 150 mg/kg vs model group, P<0.05) is listed as “significantly reduced”. Besides, in data set [3] (SMI0 30 mg/kg daily), the High-density lipoprotein worked out at 2.37 ± 0.49 mmol/L, the Low-density lipoprotein is on record as 17.94 ± 11.16 mmol/L, the Total cholesterol is on record as 20.45 ± 10.77 mmol/L and the Triglyceride was found to be 0.56 ± 0.04 mmol/L. Besides, in data set [3] (SMI0 150 mg/kg daily), the High-density lipoprotein was 3.68 ± 0.33*^@ mmol/L, the Low-density lipoprotein was 1.50 ± 0.77^@ mmol/L, the Total cholesterol is 5.35 ± 0.55^@ mmol/L and the Triglyceride is 0.40 ± 0.10 mmol/L. Besides, in data set [4] (vs model group), the lung weight result is “significantly reduced” and the number of nodules result is “significantly reduced”. Also, the “tumor proliferation inhibition rate” value in data set [4] (as high as) is 66.7%. In addition, the “reaction rate V of CZX metabolism” value in data set [5] is on record as “significantly reduced”.
